Test results as given in patent US8143418B2, “Dimeric small molecule potentiators of apoptosis” (Board of Regents, The University of Texas System, priority 2004, dated 2012).

Test system: Wap-ras tumors
Assay: In vivo therapy in the WAP-RAS transgenic model
Set-up: species or system mice
Settings: mimetic 20 mpk po every 12 hours; Paclitaxel 5 mpk ip
Description: Mimetic and Paclitaxel combination efficacy is also evaluated in the Wap-ras transgenic model.
Mimetics (20 mpk/dosing po) were dissolved in 20% hydroxyl-propyl-betacyclodexatrin (Vehicle I). 0.2 ml of mimetic solution is the oral dosing volume. Paclitaxel (5 mpk/dosing ip) was dissolved in a diluted ethanol/cremophor EL solution (vehicle II) and the i.p. dosing volume for paclitaxel was 0.1 ml.
The mice are weighed, randomized, and ear-marked on Day 0. Mimetic treatment and Vehicle I treatment began on Day 1 and continued every 12 hours until Day 21. Paclitaxel and Vehicle II treatments are started on Day 4 and continued daily on Day 5, 6, and 7.

SMILES: CC(=O)O[C@H]1C(=O)[C@@]2(C)[C@H]([C@H](OC(=O)c3ccccc3)[C@]3(O)C[C@H](OC(=O)[C@H](O)[C@@H](NC(=O)c4ccccc4)c4ccccc4)C(C)=C1C3(C)C)[C@]1(OC(C)=O)CO[C@@H]1C[C@@H]2O [Paclitaxel]
- tumor response to treatment: do not respond
